Measurements from patent US7482008B1, “Human T cell reactive feline protein (TRFP) isolated from house dust and uses therefor” (Merck Patent GmbH, priority 1989, dated 2009).
“And” between values parts separate entries of the source, which are not always exact repeats. Identical values can stand only once.

Tests used:
[1] = tested on: BDF1 mice; test: Tolerization of mice with peptide s.c. or i.v., peptide-specific IL-2 production of lymph node cells (CTLL-2); format: in vivo, mouse; conditions: 300 μg in PBS day 0 and 5, intravenously and subcutaneously; challenge 100 μg in CFA
Method: Four groups of five BDF1 (C57BL/6J×DBA/2J) mice (females, 6-8 weeks of age), were injected either subcutaneously in a single dorsal site between the forelimbs or intravenously through one of the tail veins. […] The animals were sacrificed by cervical dislocation on day 20 and inguinal and popliteal nodes were removed and placed in rinsing buffer, cold RPMI 1640 containing 1% Fetal Bovine Serum (FBS). The nodes were rinsed with rinsing buffer and forced through a fine stainless steel mesh, using a glass pestal to suspend them in rinsing buffer. The suspended cells were rinsed two times by centrifugation at 1500 rpm for 10 minutes and resuspended with rinsing buffer. An aliquot of suspended cells from each animal was counted on a Coulter Counter Model ZB.
The 0.2 ml cultures were done in triplicate in flat bottom 96 well plates (Costar) at 37° C. and 5% CO2. After 24 hours, […] of the media from each well was placed in separate round bottom 96 well plates (Costar) and was frozen overnight at −20° C. to eliminate carryover of live cells. The supernatants were tested after thawing for their ability to support the growth of CTLL-2, an IL-2 dependent T cell clone (ATCC TIB#214). […] The ^3H-incorporation in each well was counted by a Betaplate Model 1205 scintillation counter. […]

[2] = tested on: BDF1 mice preimmunized with TRFP; test: ELISA of specific IgG binding of mouse sera to TRFP before and after tolerization; format: in vivo
Method: BDF1 mice were each immunized with 100 μg TRFP in 200 μl IFA (Incomplete Freund's Adjuvant) in a single site intraperitoneally. After four months, the mice were bled and grouped according to their anti-TRFP IgG antibody levels as follows. The mice were warmed with an infra-red lamp and bled through one of the tail veins by nicking the vein with a razor blade (Gilette Platinum Plus). The blood was allowed to drip into a serum separating tube (Microtainer, Becton-Dickenson) and allowed to clot. The sera was then separated from the clot by centrifugation at 13,000 rpm. The sera was stored at −20° C. until use. The sera was assayed for TRFP-specific IgG by ELISA. For the IgG assay, immunoaffinity purified TRFP was coated onto Nunc Polysorp 96-well plates by incubation of 50 μl/well of 2 μg/ml TRFP in PBS. Unless mentioned, each incubation step in this protocol was performed for 1 hour at 37° C. After rinsing with PBS, the wells were incubated with 0.5% gelatin in PBS to block excess binding to the plate. The plates were rinsed with PBS containing 0.05% Tween 20. […] After rinsing, the bound mouse antibody was detected by incubation with biotinylated goat anti-mouse IgG (Southern Biotechnology Associates) diluted 1/10000 in PBS. The plates were rinsed and streptavidin conjugated to horse radish peroxidase (Southern Bio. Ass.) diluted 1/10000 was added for 20 minutes and incubated at room temperature. TMB peroxidase substrate (Kirkegaard and Perry) was used according to directions supplied. The resulting O.D. values were read by an ELISA reader (Bio-Tek modal #310) at 450 nm to quantitate the complexes bound to TRFP protein on the plates. The mice were matched for O.D. of the developed ELISA wells using the 1/500 dilution of each sera and separated into two matched groups of three animals. The range of the values for the TRFP specific IgG of 1/500 dilution sera from these animals was between 1.7 and 2.2. […]

[3] = specific IgG binding to TRFP, 1/4500 dilution of sera, individual mice #1-#3

“peptide Y: amino acid residues 29-55 from chain 1 of TRFP (SEQ. ID. NO: 18) (KALPVVLENARILKNCVDAKMTEEDKE)” was tested, and the “specific IL-2 secretion of draining lymph node cells” value [1] was “decreased specific IL-2 secretion”, the “quantity of antibody specific for TRFP” value ([2]; 20 days following tolerization) was “no significant change” and the “ELISA O.D.-sera sampled after “tolerization and challenge” value [2, 3] was 0.492 and 0.654 and 0.585. For the same substance, the “ELISA O.D.-sera sampled before “tolerization” and challenge” value [2, 3] was 0.670 and 0.687 and 0.686.
